Test results published in PMC2244712, “One-Pot, Mix-and-Read Peptide-MHC Tetramers” (PLoS ONE, 2008).
Residues, ends and D or L forms follow the SMILES beside them.

Key:
HLA-A*0201 = target: T1, HLA-A*0201 (Homo sapiens, UniProt P04439, D140Y/D185E/D98H/E176V/E277Q/G131W/G231S/I119V/I121R/I166T/I218V/L300P/L318F/N151K/N90K/P208A/P217A/Q86G/Q94H/R138H/R169H/T345S); test: biochemical; format: binding
T1 construct: generated from synthetic codon optimized and truncated genes without the transmembrane region; BSP (BirA biotinylation substrate peptide, biotinylated in vivo or not) (C); made in house; host or cells: E. coli BL21 (DE3), pET28a+, co-transformed with a BirA vector

[1] = target: in vivo biotinylated HLA-B*4402-HATBSP heavy chain folded with ß2m (human); test: ELISA
[2] = target: in vivo biotinylated HLA-A*0201-HAT-BSP heavy chain folded with ß2m (human); test: ELISA
[3] = target: in vivo biotinylated HLA-B*0702-BSPHAT heavy chain folded with ß2m (human); test: ELISA

Sequence of CMV pp65 495-503 peptide (P06725 whole entry, looked up): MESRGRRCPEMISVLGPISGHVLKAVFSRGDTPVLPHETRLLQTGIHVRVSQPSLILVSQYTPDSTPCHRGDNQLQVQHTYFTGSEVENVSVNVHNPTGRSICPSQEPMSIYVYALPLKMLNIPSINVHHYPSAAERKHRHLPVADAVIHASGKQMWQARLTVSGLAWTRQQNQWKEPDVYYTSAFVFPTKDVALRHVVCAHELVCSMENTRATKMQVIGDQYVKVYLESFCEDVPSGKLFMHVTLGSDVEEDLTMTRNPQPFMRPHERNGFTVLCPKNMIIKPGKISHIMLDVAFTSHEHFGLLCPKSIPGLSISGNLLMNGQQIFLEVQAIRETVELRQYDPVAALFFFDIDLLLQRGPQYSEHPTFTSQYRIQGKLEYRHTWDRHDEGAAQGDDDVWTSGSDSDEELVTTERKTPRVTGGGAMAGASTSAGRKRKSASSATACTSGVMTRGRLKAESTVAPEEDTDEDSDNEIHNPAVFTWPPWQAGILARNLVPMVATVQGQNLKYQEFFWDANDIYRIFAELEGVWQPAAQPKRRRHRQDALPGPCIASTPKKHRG
Sequence of CMV pp65 417-426 peptide (P06725 whole entry, looked up): as above
Sequence of EBV EBNA3b 657-666 peptide (P03203 whole entry, looked up): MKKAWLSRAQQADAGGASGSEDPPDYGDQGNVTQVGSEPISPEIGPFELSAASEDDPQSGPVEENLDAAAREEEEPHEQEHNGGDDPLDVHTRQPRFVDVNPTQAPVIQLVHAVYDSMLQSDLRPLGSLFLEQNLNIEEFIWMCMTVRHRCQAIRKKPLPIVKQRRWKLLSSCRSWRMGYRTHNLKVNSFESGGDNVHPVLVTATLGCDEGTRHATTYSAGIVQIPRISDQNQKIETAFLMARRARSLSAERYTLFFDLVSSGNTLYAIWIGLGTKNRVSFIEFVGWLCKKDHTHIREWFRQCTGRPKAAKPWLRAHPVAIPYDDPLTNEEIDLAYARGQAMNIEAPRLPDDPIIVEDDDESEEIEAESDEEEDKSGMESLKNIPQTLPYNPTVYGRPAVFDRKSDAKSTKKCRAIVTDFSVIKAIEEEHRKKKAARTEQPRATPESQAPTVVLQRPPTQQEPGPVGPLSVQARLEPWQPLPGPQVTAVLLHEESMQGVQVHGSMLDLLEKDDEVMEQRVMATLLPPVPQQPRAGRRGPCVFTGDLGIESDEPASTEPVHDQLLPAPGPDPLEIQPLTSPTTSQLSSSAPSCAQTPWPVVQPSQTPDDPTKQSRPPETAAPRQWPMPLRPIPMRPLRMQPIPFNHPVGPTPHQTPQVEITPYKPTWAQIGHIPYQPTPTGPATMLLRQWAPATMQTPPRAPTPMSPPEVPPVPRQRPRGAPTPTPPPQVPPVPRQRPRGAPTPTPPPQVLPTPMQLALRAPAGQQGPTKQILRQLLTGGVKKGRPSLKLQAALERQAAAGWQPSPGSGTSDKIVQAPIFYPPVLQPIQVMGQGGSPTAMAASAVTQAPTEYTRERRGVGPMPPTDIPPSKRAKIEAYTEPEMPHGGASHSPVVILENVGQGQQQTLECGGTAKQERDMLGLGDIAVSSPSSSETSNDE

Row | Compound | Kd (HLA-A*0201) [nM] | other results
1 | CC[C@H](C)[C@H](NC(=O)[C@H](CCCCN)NC(=O)[C@H](CCCCN)NC(=O)[C@H](CS)NC(=O)[C@H](C)NC(=O)[C@H](CC(=O)O)NC(=O)[C@H](CO)NC(=O)[C@H](CC(C)C)NC(=O)[C@H](C)N)C(=O)O (H-ALSDACKKI-OH) | > 1000 | –
2 | EBV EBNA3b 657-666 peptide (from UniProt P03203 657-666) | – | % folding [1]: 100%
3 | CC(C)C[C@H](NC(=O)[C@@H](N)Cc1ccc(O)cc1)C(=O)N[C@@H](CO)C(=O)N[C@H](C(=O)N[C@@H](CCC(=O)O)C(=O)N[C@@H](CCCNC(=N)N)C(=O)N[C@@H](CC(=O)O)C(=O)N[C@@H](Cc1c[nH]cn1)C(=O)N[C@H](C(=O)O)C(C)C)[C@@H](C)O (H-YLSTERDHV-OH) | 10 to 100 | –
4 | CC[C@H](C)[C@H](NC(=O)[C@@H](NC(=O)[C@H](CC(=O)O)NC(=O)[C@H](Cc1ccc(O)cc1)NC(=O)[C@H](CC(=O)O)NC(=O)[C@H](CC(C)C)NC(=O)[C@@H](N)Cc1ccc(O)cc1)[C@@H](C)O)C(=O)N[C@@H](Cc1ccc(O)cc1)C(=O)N[C@H](C(=O)O)C(C)C (H-YLDYDTIYV-OH) | < 10 | –
5 | CC[C@H](C)[C@H](NC(=O)[C@H](CC(N)=O)NC(=O)[C@@H](NC(=O)[C@H](C)NC(=O)[C@H](CO)NC(=O)[C@H](CC(=O)O)NC(=O)[C@H](CO)NC(=O)[C@H](CC(C)C)NC(=O)[C@@H](N)Cc1ccc(O)cc1)[C@@H](C)CC)C(=O)O (H-YLSDSAINI-OH) | < 10 | –
6 | CMV pp65 495-503 peptide (from UniProt P06725 495-503) | – | % folding [2]: 95%
7 | CMV pp65 417-426 peptide (from UniProt P06725 417-426) | – | % folding [3]: 100%
8 | CC(C)C[C@H](NC(=O)[C@@H](N)Cc1ccccc1)C(=O)N[C@@H](CCC(=O)O)C(=O)N[C@H](C(=O)N[C@@H](CC(=O)O)C(=O)N[C@@H](C)C(=O)NCC(=O)N[C@@H](CCCNC(=N)N)C(=O)N[C@H](C(=O)O)C(C)C)[C@@H](C)O (H-FLETDAGRV-OH) | 10 to 100 | –
